Laboratory results taken from paper PMC9448872 (Frontiers in Cell and Developmental Biology, 2022).

Columns and labels:
C76 cells [1] = assay: Cell viability by flow cytometry and DAPI uptake; type: cell-based; settings: 500nM of TCEP, DAPI uptake, mean, n = 2 (95% without TCEP)
[2] = system: αvβ6 endocytosis in C76 cells; assay: Flow cytometry internalisation assay using TCEP reduction in C76 cells (inhibitors, siRNA); type: cell-based; parameters: internalisation of A20FMDV2 with Clathrin inhibitor: concentration or dose not given beside the values
αvβ6 = target: T1, αvβ6 (Homo sapiens, UniProt P06756+P18564); settings: cited from earlier work
T1 construct: endogenous in cells; host or cells: panel of breast, pancreas and lung cell lines (C76, C102, C139, H322M, H441, H358, MCF10A, MCF10CA1α, MDAMB468, BT20, HPDE, NHBE)

C76 cells [3] = assay: Transwell migration assay; settings: Transwells coated with 0.5 μg/ml LAP, 16 h, vehicle control 547 ± 128, p < 0.05
FMDV = settings: cited from earlier work

T1 sequence (P06756 31-889 limits assumed): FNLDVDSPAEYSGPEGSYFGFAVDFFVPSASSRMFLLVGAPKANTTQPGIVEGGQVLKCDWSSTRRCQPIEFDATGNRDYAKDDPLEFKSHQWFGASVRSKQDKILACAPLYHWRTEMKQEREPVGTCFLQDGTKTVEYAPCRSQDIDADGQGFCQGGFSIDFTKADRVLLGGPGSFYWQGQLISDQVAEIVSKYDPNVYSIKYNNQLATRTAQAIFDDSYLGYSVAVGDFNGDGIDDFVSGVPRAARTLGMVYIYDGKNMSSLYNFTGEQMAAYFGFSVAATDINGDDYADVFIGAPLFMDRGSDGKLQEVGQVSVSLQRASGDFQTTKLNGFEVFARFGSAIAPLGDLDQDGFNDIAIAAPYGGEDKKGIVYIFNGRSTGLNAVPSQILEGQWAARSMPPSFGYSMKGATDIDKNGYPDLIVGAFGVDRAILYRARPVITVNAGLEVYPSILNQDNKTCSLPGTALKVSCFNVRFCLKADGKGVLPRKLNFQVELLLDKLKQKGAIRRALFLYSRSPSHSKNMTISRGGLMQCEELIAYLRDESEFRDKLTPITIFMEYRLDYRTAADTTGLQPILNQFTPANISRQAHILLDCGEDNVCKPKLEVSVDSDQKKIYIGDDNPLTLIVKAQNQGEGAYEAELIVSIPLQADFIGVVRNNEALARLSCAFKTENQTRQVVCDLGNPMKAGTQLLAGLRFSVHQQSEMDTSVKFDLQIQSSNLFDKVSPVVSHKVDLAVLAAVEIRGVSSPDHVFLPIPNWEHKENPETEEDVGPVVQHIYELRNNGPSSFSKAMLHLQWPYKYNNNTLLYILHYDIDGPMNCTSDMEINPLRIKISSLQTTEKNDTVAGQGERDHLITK
T1 sequence (P06756 891-1048 limits assumed): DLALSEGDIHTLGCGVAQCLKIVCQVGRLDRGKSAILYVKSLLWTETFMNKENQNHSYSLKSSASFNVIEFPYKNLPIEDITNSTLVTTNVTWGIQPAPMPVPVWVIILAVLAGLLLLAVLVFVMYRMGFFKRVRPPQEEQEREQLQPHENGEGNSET
T1 sequence (P18564 22-788): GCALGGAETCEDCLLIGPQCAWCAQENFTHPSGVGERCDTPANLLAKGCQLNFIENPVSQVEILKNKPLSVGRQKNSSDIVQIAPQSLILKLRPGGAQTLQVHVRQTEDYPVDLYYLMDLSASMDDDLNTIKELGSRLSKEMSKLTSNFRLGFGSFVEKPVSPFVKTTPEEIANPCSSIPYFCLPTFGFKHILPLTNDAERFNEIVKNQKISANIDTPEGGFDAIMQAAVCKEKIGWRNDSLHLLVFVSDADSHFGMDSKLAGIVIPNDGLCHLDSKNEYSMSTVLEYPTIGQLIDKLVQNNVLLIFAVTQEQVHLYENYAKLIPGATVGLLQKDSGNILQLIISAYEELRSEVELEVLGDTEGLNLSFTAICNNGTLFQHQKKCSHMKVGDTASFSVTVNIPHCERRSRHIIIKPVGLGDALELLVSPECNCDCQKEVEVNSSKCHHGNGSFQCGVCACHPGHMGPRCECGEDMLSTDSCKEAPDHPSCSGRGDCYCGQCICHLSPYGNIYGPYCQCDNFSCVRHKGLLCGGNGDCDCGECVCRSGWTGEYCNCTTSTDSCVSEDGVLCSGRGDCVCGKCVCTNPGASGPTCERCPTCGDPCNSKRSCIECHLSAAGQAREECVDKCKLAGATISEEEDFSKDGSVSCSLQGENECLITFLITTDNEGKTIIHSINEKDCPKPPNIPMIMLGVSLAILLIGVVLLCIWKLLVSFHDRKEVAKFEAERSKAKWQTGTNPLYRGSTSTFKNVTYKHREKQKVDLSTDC

O=C(O)CCP(CCC(=O)O)CCC(=O)O [TCEP, tris(2-carboxyethyl)phosphine]
cells viable (C76 cells [1]): 68%

CCCCC[C@@H](O)[C@H]1C(=O)O[C@H](C)[C@@H](O)/C=C/C=C/C=C/C=C/C=C(\C)[C@@H](O)C[C@H](O)C[C@H](O)C[C@H](O)C[C@H](O)C[C@H](O)C[C@@H]1O [Filipin]
internalisation of αvβ6-bound Cy5-SS-(GS)5-bioA20FMDV2 with caveolin inhibitor ([2]; C76 cells pre-treated with 10 ug/ml Filipin, n = 3, p < 0.05): 19.7 ± 3.9%
reduction in the number of cells with internalised αVβ6-A20FMDV2 ([2]; C76 cells, caveolin inhibited (Filipin)): 41%
reduction in αvβ6 internalisation with caveolin inhibitor (αvβ6): not statistically significant
number of cells migrating towards LAP (C76 cells [3]): 280 ± 51

CN(C)CCCN1c2ccccc2Sc2ccc(Cl)cc21 [Chlorpromazine]
internalisation of αvβ6-bound Cy5-SS-(GS)5-bioA20FMDV2 with clathrin inhibitor ([2]; C76 cells pre-treated with 2 ug/ml Chlorpromazine, 20 min, n = 3, p < 0.05): 39 ± 2.5%
internalisation of A20FMDV2 with Clathrin inhibitor ([2]; C76 cells, ARFGAP siRNA knockdown + clathrin inhibitor, n = 3): 6.2 ± 3.5%
internalisation of A20FMDV2 with Clathrin inhibitor ([2]; C76 cells, ASAP siRNA knockdown + clathrin inhibitor, n = 3): 9.4 ± 9.9%
internalisation of A20FMDV2 with Clathrin inhibitor ([2]; C76 cells, CBL siRNA knockdown + clathrin inhibitor, n = 3): 14 ± 8%
internalisation of A20FMDV2 with Clathrin inhibitor ([2]; C76 cells, CBLB siRNA knockdown + clathrin inhibitor, n = 3): 7.4 ± 3.9%
internalisation of A20FMDV2 with Clathrin inhibitor ([2]; C76 cells, CYTH2 siRNA knockdown + clathrin inhibitor, n = 3): 13 ± 11.7%
internalisation of A20FMDV2 with Clathrin inhibitor ([2]; C76 cells, non-targeting (NT) siRNA + chlorpromazine, n = 3, not significant): 14 ± 6.5%
number of cells migrating towards LAP (C76 cells [3]): 225 ± 73

OC[C@H]1O[C@@](CO)(O[C@H]2O[C@H](CO)[C@@H](O)[C@H](O)[C@H]2O)[C@@H](O)[C@@H]1O [sucrose]
reduction of αvβ6 dependent FMDV infection (FMDV): 95%
